Patent publication US10052310B2, “Separase inhibitors and uses thereof” (Baylor College of Medicine, priority 2013, dated 2018)
Entries after “also recorded” stand apart in the source; their conditions may differ. Where two headings read alike, the source gives them in different places.

How the values were obtained:
Molt4 cells = assay: Immunoblotting for apoptosis induction; type: cell-based, human; conditions: various concentrations of Sepin-1, 24 h, Western blot
Protocol: To determine the mechanism of cell growth inhibition induced by Sepin-1, Applicants performed immunoblotting to investigate if apoptosis is induced after Molt4 cells were treated with Sepin-1. Activation of caspase-3 and cleavage of poly(ADP-ribose) polymerase (Parp-1) are two commonly used parameters in determination of apoptosis. Applicants used Etoposide as a positive control, which is a well-known chemotherapy agent that induces DNA damage by interacting with topoisomerase II. […] In addition, Applicants observed that the effect of Sepin-1 on the activation of caspase-3 and degradation of Parp-1 is similar to that of Etoposide (FIG. 8F).
Preparation of protein samples and Western blot were performed as described previously (J Cell Biol, 2008, 183, 1019-1031; PLoS. ONE., 2013, 8, e69458).

MCF7 xenografts = assay: Growth inhibition of MCF7 xenograft tumors; type: in vivo, SCID-beige mice
Protocol: (§1) For treatment studies, MCF7 xenografts (ER+ PR+ HER2−) were generated by injection of one million cultured cells grown under standard in vitro conditions as previously described (Proc. Natl. Acad. Sci. U. S. A 105, 2008, 13033-13038). Donor tumors for PDX lines MC1 and BCM-5471 were divided into small fragments and retransplanted into the fat pat of recipient SCID Beige mice (5 mice per group). When the tumors reached approximately ˜200 mg, mice were treated with either vehicle or Sepin-1. Sepin-1 was injected at dose of 10 mg/kg daily for 5 days a week for 3 weeks. […] Vehicle injected mice served as controls. Size of the xenografts were measured every four days using calipers and tumor weight was estimated using the guidelines by NCI for xenograft evaluation (http://ncifrederick.cancer.gov/Lasp/Acuc/Frederick/Media/Documents/ACUC14.pdf). After 3 weeks treatment, the tumors were harvested and fixed in 10% Buffed Formalin Phosphate (Fisher Scientific, Pittsburgh, Pa.) overnight. The tumor tissues were washed with PBS for 3×30 min; dehydrated for 1 h at 70%, 80%, 90% and 100% two times; and immerged in Xylene several times until the tissues became clear. The samples were embedded in wax and sectioned with 5 μm in thickness. All mice were maintained in accordance with the NIH Guide for the Care and Use of Laboratory Animals with approval from the Baylor College of Medicine Institutional Animal Care and Use Committee.

Separase = molecular target: T1, Separase (Homo sapiens, UniProt Q14674); assay: Fluorogenic Separase activity assay using (Rad21)2-Rh110 as substrate; type: biochemical; conditions: for IC50: (Rad21)2-Rh110 substrate
T1 construct: made in house; host or cells: 293T cells; released from IgG-Agarose by TEV protease
T1 sequence (Q14674 whole entry): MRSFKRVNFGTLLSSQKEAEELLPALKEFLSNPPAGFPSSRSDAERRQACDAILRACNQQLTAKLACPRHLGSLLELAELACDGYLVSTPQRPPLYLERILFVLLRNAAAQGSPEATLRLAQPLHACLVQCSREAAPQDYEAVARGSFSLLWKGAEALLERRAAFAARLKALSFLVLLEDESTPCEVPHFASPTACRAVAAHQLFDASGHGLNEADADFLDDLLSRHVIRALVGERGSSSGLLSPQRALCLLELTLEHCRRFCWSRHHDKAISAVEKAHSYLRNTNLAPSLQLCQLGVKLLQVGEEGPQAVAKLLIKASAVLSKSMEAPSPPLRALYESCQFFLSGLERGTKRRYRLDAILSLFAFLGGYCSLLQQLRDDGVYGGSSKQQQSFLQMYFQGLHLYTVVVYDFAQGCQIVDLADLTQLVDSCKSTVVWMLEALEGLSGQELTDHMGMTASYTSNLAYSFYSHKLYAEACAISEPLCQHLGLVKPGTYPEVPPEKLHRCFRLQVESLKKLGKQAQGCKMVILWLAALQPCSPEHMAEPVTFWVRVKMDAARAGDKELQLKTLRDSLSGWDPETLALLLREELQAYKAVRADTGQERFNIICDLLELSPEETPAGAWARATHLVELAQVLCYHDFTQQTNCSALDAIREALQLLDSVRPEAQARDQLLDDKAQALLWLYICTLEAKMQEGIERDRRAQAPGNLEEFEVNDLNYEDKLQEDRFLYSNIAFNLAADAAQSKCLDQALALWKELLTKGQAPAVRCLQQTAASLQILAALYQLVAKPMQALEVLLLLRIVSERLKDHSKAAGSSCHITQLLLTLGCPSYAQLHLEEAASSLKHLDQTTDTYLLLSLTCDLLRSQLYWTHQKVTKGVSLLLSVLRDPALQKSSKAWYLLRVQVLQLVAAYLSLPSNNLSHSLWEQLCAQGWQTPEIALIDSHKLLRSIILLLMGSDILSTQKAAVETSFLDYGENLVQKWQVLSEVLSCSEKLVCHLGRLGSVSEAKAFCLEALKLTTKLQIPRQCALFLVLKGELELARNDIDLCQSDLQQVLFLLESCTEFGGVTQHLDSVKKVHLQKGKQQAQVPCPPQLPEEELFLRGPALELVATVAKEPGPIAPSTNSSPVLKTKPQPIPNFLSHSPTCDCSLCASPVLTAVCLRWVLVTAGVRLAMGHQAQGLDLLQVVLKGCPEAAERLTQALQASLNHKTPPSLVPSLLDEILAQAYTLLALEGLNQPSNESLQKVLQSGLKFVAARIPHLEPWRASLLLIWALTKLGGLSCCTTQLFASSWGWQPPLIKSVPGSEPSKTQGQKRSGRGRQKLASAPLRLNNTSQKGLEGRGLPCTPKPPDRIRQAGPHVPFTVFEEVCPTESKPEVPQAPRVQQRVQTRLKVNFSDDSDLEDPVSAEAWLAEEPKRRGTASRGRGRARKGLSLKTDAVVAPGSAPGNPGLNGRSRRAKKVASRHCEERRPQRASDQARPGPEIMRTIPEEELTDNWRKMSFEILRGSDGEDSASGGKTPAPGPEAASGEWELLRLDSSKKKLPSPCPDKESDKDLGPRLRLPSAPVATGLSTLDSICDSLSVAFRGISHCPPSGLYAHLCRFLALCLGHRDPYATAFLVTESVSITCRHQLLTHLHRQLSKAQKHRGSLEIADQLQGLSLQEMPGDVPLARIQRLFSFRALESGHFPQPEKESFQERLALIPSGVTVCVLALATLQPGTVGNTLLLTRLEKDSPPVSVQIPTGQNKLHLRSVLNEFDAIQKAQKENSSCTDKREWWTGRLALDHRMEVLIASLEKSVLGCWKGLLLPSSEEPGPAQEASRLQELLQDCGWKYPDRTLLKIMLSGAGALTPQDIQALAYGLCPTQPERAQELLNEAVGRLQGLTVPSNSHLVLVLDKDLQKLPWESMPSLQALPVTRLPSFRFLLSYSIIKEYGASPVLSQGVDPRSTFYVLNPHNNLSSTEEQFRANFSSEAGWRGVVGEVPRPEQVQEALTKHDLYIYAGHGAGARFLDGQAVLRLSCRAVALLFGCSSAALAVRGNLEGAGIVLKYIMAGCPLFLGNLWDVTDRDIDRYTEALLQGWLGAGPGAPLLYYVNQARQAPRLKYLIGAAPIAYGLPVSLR
Protocol: The substrate used in this Example is (Rad21)2-Rh110, which has two Rad21 peptide molecules (Asp-Arg-Glu-Ile-Nle-Arg) conjugated to one molecule of Rhodamine 110 (Rh110) (CPC Scientific, Sunnyvale Calif.). The assay was set up using 384-well low volume black polystyrene plates (Corning, N.Y.). Fifteen micro liter of activated Separase (˜5 ng) was mixed with 5 μl of test compound. The cleavage buffer (CB) used to dilute reagents was (30 mM Hepes-KOH pH7.7, 50 mM NaCl, 25 mM NaF, 25 mM KCl, 5 mM MgCl2, 1.5 mM ATP, and 1 mM EGTA). The mixture was incubated at room temperature for 1 h, and then 5 μl of 0.2 mM substrate (Rad21)2-Rh110 was added. The positive control contained Separase, substrate and CB without the test compound. The negative control contained substrate and CB only. After the reaction mixture was incubated at 37° C. for 3 h, the relative fluorescence intensity was measured (without stopping the enzymatic activity) at λex=390 nm/λem=450 nm for […] (AMC) released from Rad21-MCA or λex=490 nm/λem=528 nm for Rh110 released from (Rad21)2-Rh110 using a Synergy™ 4 Multi-Mode Microplate Reader (BioTek Instruments Inc., Winooski, Vt.).
Different amounts of Sepin-1 were mixed with activated Separase for 30 min before substrate (Rad21)2-Rh110 was added. After 3 h incubation at 37° C., the fluorescence intensity of Rh110 was determined. IC50 was calculated using either KaleidaGraph program (Synerge software, Reading, Pa.) or four parameter logistic equation (4-parameter dose-response curve fit): Inhibition of Activity (%)=min+(max−min)/{1+(log [M]/IC50)}^Hill Slop, where “min” and “max” represent minimal and maximal activity inhibition, respectively. Hill Slop is the slope of the curve at its midpoint. To identify the mode of Sepin-1 interacting with Separase, different amounts of both Sepin-1 and (Rad21)2-Rh110 were used in the Separase activity assay.

[1] = test system: Separase overexpressing primary pediatric glioblastoma samples; assay: MTT cytotoxicity assays in primary pediatric glioblastoma samples; type: cell-based; conditions: two Separase overexpressing primary pediatric glioblastoma samples
Protocol: FIG. 10 provides data relating to separase overexpression in Pediatric glioblastoma (GBM) and the effect of Sepin-1 in inhibiting the growth of glioblastoma cells in vitro and in vivo. […] SCID-beige mice after two weeks of transplantation were treated at a dose of 10 mg/kg daily ip for 5 days a week for 4 weeks with either Sepin-1 or vehicle (n=6/group).

[2] = test system: MC1 triple-negative breast tumor xenograft; assay: Growth inhibition of patient-derived xenograft MC1; type: in vivo, SCID-beige mice; conditions: 10 mg/kg intraperitoneal injection, three week treatment
Description: Patient-derived xenograft (PDX) lines MC1 (ER− PR− HER2−) (Proc Natl Acad Sci USA. 100, 2003, 3983-3988) and BCM-5471 (ER− PR− HER2−) (Cancer Res. 73, 2013, 4885-4897) were maintained as described (Cancer Res. 73, 2013, 4885-4897) by serial transplantation into SCID Beige immunocompromised host mice whose endogenous mammary epithelium was removed surgically (Cancer Res. 19, 1959, 515-20).
as §1, with “The tumor tissues were washed with PBS for 3×30 min; dehydrated for 1 h at 70%, 80%, 90% and 100% two times; and immerged in Xylene several times until the tissues became clear. The samples were embedded in wax and sectioned with 5 μm in thickness. All mice were maintained in accordance with the NIH Guide for the Care and Use of Laboratory Animals with approval from the Baylor College of Medicine Institutional Animal Care and Use Committee.” left out

[3] = MCF7 xenograft tumors treated with Sepin-1 versus vehicle

For `CC1(C)[N+]([O-])=c2ccc([N+](=O)[O-])cc2=[N+]1[O-]` [Sepin-1, 2,2-dimethyl-5-nitro-2H-benzimidazole-1,3 dioxide], the “activation of caspase-3” value (Molt4 cells) was “caspase-3 proenzyme was induced and activated”, the “cleavage of poly(ADP-ribose) polymerase (Parp-1)” value (Molt4 cells) was “Parp-1 cleavage” and the “growth of MCF7 xenograft tumors” value (MCF7 xenografts; 10 mg/kg daily, 5 days a week, 3 weeks) was “inhibits the growth of xenograft tumor derived from MCF-7”. The “apoptotic bodies in H&E stained tumor sections” value (MCF7 xenografts; [3]) was “increase of apoptotic bodies”, the “cleaved caspase-3 staining of tumor sections” value (MCF7 xenografts; [3]) was “significantly increased” and the “effect of 0.1% Tween-20 or 1% BSA on inhibition kinetics” value (Separase; 0.1% Tween-20 or 1% BSA in the reaction mixture) was “did not affect the kinetics of Sepin-1 in inhibiting Separase activity”. For the same molecule, the IC50 (Separase; calculated using KaleidaGraph, read-out: IC50 of Separase activity inhibition) was 14.8 µM, the IC50 (Separase; four-parameter fit, n=3, read-out: estimated IC50, four-parameter dose-response curve fit) was 15.8 µM and the “dose dependence of Separase activity inhibition” value (Separase; FIG. 9B) was “dose-dependent inhibition of Separase activity”. For the same molecule, the “mode of inhibition (effect on Km and Vmax)” value (Separase; Lineweaver-Burk plot, Sepin-1 mixed with Separase 30 min before substrate) was “did not affect the Km but reduced the Vmax; also recorded: reduced the speed (Vmax) of substrate conversion by Separase, but not the Km”, the “verified activity in inhibiting Separase enzymatic activity” value (Separase; re-test of HTS hits) was “highest activity” and the “cell death in MTT cytotoxicity assays” value [1] was “efficient cell death”. The “inhibition of growth of xenograft MC1 tumors versus vehicle” value [2] was 70%.
